In patent publication US20160015770A1, “COMPOSITIONS FOR TREATMENT OF RETINAL DETACHMENT” (THE REGENTS OF THE UNIVERSITY OF MICHIGAN, priority 2013, published 2016):
“Also recorded” adds a separate entry of the source.

Legend:
[1] = target: T1, calpain 1 (Rattus norvegicus, UniProt P97571); assay: Experimental retinal detachment, western blot of calpain 1 specific cleaved alpha-spectrin in retina; assay type: in vivo; settings: 0.2 μg subretinal at time of detachment, 7 days after detachment, vs vehicle (DMSO)
T1 construct: Retinas from experimental eyes with detachment (detached portion of retina only) and control eyes without detachment were dissected from the RPE-choroid, homogenized, and lysed; from tissue; host or cells: rat retina (in vivo retinal detachment model)
T1 sequence (P97571 1-713): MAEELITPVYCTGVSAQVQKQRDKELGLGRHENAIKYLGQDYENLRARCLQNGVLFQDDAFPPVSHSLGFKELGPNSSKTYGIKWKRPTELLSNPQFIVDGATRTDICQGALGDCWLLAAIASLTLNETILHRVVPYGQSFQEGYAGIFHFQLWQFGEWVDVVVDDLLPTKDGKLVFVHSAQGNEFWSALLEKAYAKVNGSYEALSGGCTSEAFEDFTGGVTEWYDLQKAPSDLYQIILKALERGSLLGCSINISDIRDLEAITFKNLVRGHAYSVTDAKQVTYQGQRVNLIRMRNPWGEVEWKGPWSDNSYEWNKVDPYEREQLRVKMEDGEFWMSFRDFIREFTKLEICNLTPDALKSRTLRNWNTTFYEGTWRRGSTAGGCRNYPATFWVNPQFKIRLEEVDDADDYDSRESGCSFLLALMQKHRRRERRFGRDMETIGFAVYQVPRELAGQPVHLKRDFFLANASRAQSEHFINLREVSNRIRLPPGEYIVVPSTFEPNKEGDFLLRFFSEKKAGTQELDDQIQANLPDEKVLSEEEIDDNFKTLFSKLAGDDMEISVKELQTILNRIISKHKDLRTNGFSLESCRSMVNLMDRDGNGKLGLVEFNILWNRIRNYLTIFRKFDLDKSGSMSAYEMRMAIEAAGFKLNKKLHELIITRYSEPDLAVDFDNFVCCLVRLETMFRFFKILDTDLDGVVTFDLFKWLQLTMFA
T1 sequence (Q64537 1-270 partner): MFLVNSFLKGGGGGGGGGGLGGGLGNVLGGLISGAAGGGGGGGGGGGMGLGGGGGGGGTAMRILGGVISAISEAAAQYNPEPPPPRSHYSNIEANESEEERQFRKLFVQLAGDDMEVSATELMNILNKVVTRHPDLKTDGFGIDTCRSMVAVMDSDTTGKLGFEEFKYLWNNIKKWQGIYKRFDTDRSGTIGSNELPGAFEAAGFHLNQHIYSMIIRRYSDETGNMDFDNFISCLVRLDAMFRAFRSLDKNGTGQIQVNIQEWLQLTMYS
Description: Detachments were created in adult male Brown-Norway rats (300-400 g; Charles River Laboratories, Wilmington, Mass.) as described previously. Briefly, rodents were anesthetized with a 50:50 mix of ketamine/xylazine, and pupils were dilated with topical phenylephrine (2.5%) and tropicamide (1%). A 20-gauge microvitreoretinal blade was used to create a sclerotomy 2 mm posterior to the limbus, carefully avoiding lens damage. A subretinal injector (Glaser, 32-gauge tip; BD Ophthalmic Systems, Franklin Lakes, N.J.) was introduced through the sclerotomy into the vitreous cavity and then through a peripheral retinotomy into the subretinal space. […]
Retinas from experimental eyes with detachment (detached portion of retina only) and control eyes without detachment were dissected from the RPE-choroid, homogenized, and lysed in buffer containing 10 mM HEPES (pH 7.6), 0.5% IgEPal, 42 mM KCl, 1 mM phenylmethylsulfonyl fluoride, 1 mM EDTA, 1 mM EGTA, 1 mM dithiothreitol, 5 mM MgCl2, and one tablet of protease inhibitors per 10 mL buffer (Complete Mini; Roche Diagnostics GmbH, Madison, Wis.). […] The protein concentration of the supernatant was then determined (DC Protein Assay kit; Bio-Rad Laboratories, Hercules, Calif.). The protein samples were separated on SDS-polyacrylamide gels (Tris-HCl Ready Gels; Bio-Rad Laboratories). […]

[2] = test system: caspase 8; assay: Caspase 8 activity luminescent assay in Fas-activated 661W cells; assay type: cell-based, mouse
Experimental: Caspase 8 activity was measured by a commercially available luminescent cleavage assay kit (Promega, Madison, Wis.). The 661W cells were seeded in 96-well plates at 2,000 cells/well for 24 hours before treatment. Cells were treated with 500 ng/mL Fas-agonistic Jo2 monoclonal antibody and various concentrations of calpeptin or equal volume of DMSO. Caspase 8 activity was measured at 48 hours by incubating the cells with the proluminescent substrate in 96-well plates according to the manufacturer's instructions. Controls included untreated cells and wells with no cells. Luminescence was measured in a plate reader luminometer (Turner Biosystems, Sunnyvale, Calif.).

## CCCC[C@@H](C=O)NC(=O)[C@H](CC(C)C)NC(=O)OCc1ccccc1 [calpeptin]
[1]
  cleaved calpain 1 specific alpha-spectrin in retina: significantly less; also recorded: less cleaved alpha-spectrin
[2]; 661W cells not treated with Fas activating antibody, calpeptin alone
  caspase 8 activity: no effect
[2]; 661W cells, Fas activating antibody 48 hours, 1 μM
  caspase 8 activity: little effect
[2]; 661W cells, Fas activating antibody 48 hours, 10 uM
  caspase 8 activity: returned caspase 8 activity to baseline levels; also recorded: significantly reduced its activity back to baseline
[2]; 661W cells, Fas activating antibody 48 hours, 25 uM
  caspase 8 activity: returned caspase 8 activity to baseline levels; also recorded: significantly reduced its activity back to baseline
